Literature values as cited in US8247398B2, “Zinc complexes of natural amino acids for treating elevated copper caused toxicities” (SSV Therapeutics, Inc., priority 2007, dated 2012).

Compound: CC(=O)[O-].CC(=O)[O-].[Zn+2] [zinc acetate]
- patients encountering persistent gastric irritation, burning sensation, and nausea (patients receiving zinc acetate therapy): About 10%
- time before therapy is tolerable to the patient (taken on an empty stomach or in-between meals): several days or weeks

Compound: zinc dipicolinate
- metallothionein induction in the epidermis, sebaceous glands and hair follicles (metallothionein; same test as zinc histidine chelate (rats)): substantially raised

Compound: N[C@@H](Cc1c[nH]cn1)C(=O)O.[Zn] [zinc histidine]
- metallothionein production in livers (metallothionein; oral administration, male Wistar rat livers, within 12 hours): 14-39 fold over control group

Compound: O=S(=O)([O-])[O-].[Zn+2] [Zinc sulfate, zinc sulfate]
- patient discomfort compared with zinc acetate (Wilson's disease therapy): even more patient discomfort
